# Source: PMC9253268 (Frontiers in Immunology, 2022)
# How the values were obtained:
# AIA-M rat model = experiment: Histology of knee joints of AIA-M rats (H&E, safranin O fast green, Masson trichrome); format: in vivo; conditions: all p < 0.05
# Method: The viscera indexes were calculated by the weight of the thymus, spleen, liver, and kidney relative to total […]. Histological changes were examined using hematoxylin and eosin (H&E), safranin O-fast green (Solarbio, Beijing, China), and Masson trichrome staining (Baso, Wuhan, China) according to routine protocols. Please see detailed information on the protocol in Supplementary Materials Section 5 . […]
# after BHGZD administration (5), respectively.
# The rats were acclimatized to an apparatus consisting of individual perspex boxes. With the aid of syringe (1mL), 500μL acetone was sprayed gently from a short distance to the middle of the plantar surface of hind paw. […] The amount of time that rats were licking and/or shaking the hind paw was recorded during 5min after acetone application and was used as an index of nocifensive response for cold hypersensitivity (6). The licking and/or shaking time was measured at 0, 5, 10, 15, 25th day after BHGZD administration, […]
# For thermal-induced hyperalgesia, the rats were placed for 30minin an apparatus consisting of individual perspex boxes with Hargreaves radiant heat apparatus (Ugo Basile Srl, Comerio VA, Italy) and an infrared radiant heat (40W) source was directed to middle part of the plantar surface of the hind paw. […] The paw withdrawal latency was measured at 0, 5, 10, 15, 25th day after BHGZD administration, respectively. […]
# [1] = test system: NLRP3 inflammasome-induced pyroptosis; experiment: NLRP3 inflammasome-induced pyroptosis markers in AIA-M rats (TUNEL, IHC, Western blotting, ELISA); format: in vivo, rat; conditions: all p < 0.05
# Method: The occurrence of pyroptosis in both MH7A cells and synovium tissues in AIA-M rats was determined by in situ TUNEL staining (TUNEL Andy Fluor™ 594 Apoptosis Detection Kit, ABP Biosciences, Wuhan, China) in accordance with the manufacturer’s protocol. Fluorescence images were visualized and photographed with inverted fluorescence microscopes (MF53, MSHOT, Guangzhou, China; Olympus, BX51, Tokyo, Japan). Detailed information on TUNEL assay is provided in Supplementary Materials Section 18 .
# To detect the expression levels of NLPR3/ASC of the knee joints in AIA-M rats and corresponding treatment groups, immunohistochemical staining was carried out using a DAB kit (Cat No. AR1027, Boster Biological Technology Co., Ltd., Wuhan, China) and a rabbit/mouse two-step detection kit (Cat No. SV0002/SV0001, Boster Biological Technology Co., Ltd., Wuhan, China) according to the routine protocols. Immunohistochemistry quantification was performed using ImageJ (Image Progressing and Analysis in Java, version 1.42q, https://imagej.nih.gov/ij/), following the ImageJ User Guide. […]
# Cell apoptosis was determined by in situ terminal deoxynucleotidyl transferase-mediated dUTP-biotin nick end-labeling reaction (TUNEL) staining (TUNEL Andy Fluor™ 594 Apoptosis Detection Kit, ABP Biosciences, Wuhan, China) in accordance with the […]
compound,measurement,setting,value
"CN(Cc1cnc2nc(N)nc(N)c2n1)c1ccc(C(=O)N[C@@H](CCC(=O)O)C(=O)O)cc1 [MTX, methotrexate]","histopathological changes of knee joints (inflammatory cell infiltration, cartilage and bone destruction, synovial hyperplasia)",AIA-M rat model,apparently reversed
same,activities of GSDMD-NT in sera and its levels in knee joints,[1],reduced
same,activity of LDH in the sera,[1],significantly decreased
